Experimental data as given in patent publication US8147891B2, “Use of an acaricidal powder” (SOLVAY (Societe Anonyme), priority 2002, dated 2012).
Read-outs that look alike come from different tables or passages of the source.

Assays:
Acarus siro = conditions: after 48 hours; 10 g powder, 50 mites, mean of 3 samples
From the text: (§1) 10 g of sodium bicarbonate powder having a particle size such that 100% of the particles have a diameter of less than 160μ, and at least 95% have a diameter of less than 100μ, were placed at the bottom of a Petri dish. 50 “Acarus siro” wheat mites were then placed on the powder.

Tyrophagus putrescentiae = conditions: after 24 hours; 10 g powder, 50 mites
Procedure: as §1
The procedure was carried out as for Example 1, except that “Tyrophagus putrescentiae” cheese mites were used.

Rhizopertha dominica = conditions: 10 g powder, 50 insects
From the text: In this example, a powder comprising 96% of sodium bicarbonate and 4% of amorphous precipitated fumed silica (Aerosil® 200 produced by Degussa) was used. The powder has a particle size such that 100% of the particles have a diameter of less than 160μ and at least 95% have a diameter of less than 100μ.
(§2) 10 g of powder were placed at the bottom of a Petri dish. 50 “lesser grain borer” insects (Rhizopertha dominica) were then placed on the powder, along with sufficient food to ensure survival for 15 days.
In Examples 4 and 5, the procedure was carried out as in Example 3, except that, in Example 4, a powder consisting essentially of sodium bicarbonate was used and, in Example 5, a powder consisting essentially of silica (silica gel) was used.

Sitophilus granarius = tested on: Sitophilus granarius
From the text: as §2
The effect of various silicas and of a mixture of diatomaceous earth supplemented with 10% of silica gel was also compared.

## O=C([O-])O.[Na+] [Sodium bicarbonate, sodium bicarbonate]
Acarus siro
  death of the acarids: 95%
Tyrophagus putrescentiae
  death of the acarids: 100%
Rhizopertha dominica; 48 h
  % mortality: 2%
Rhizopertha dominica; 72 h
  % mortality: 8%
Rhizopertha dominica; 4 days
  % mortality: 15%
Rhizopertha dominica; 7 days
  % mortality: 21%
Rhizopertha dominica; 10 days
  % mortality: 43%
Rhizopertha dominica; 15 days
  % mortality: 91%
Sitophilus granarius; 24 h
  % mortality: 0%
Sitophilus granarius; 48 h
  % mortality: 0%
Sitophilus granarius; 72 h
  % mortality: 1%
Sitophilus granarius; 4 days
  % mortality: 5%
Sitophilus granarius; 7 days
  % mortality: 9%
Sitophilus granarius; 10 days
  % mortality: 55%
Sitophilus granarius; 15 days
  % mortality: 100%
